A short description of data set [1]: Chemical stability (RP-HPLC normalized purity after incubation at 40° C.). In kind it is physicochemical. Particulars: 14-day incubation, 0.2 mg/ml, normalized purity (area-%). How it is done: Samples of each test peptide were dissolved in MILLIQ™ water, and the pH of the solution was adjusted to pH 6, 7, 7.5 or 9 using either HCl or NaOH. The final peptide concentration was 0.2 mg/ml. Samples were placed in glass vials and incubated at 40° C. The samples were analyzed by RP-HPLC on a C18 column with gradient elution using an acetonitrile/TFA/water eluent system. The area-percentage (area-%) of the main peak after incubation time T=t (relative to time T=0) was determined by UV spectroscopy at 220 nm.
The purity was first determined as follows: Purity(area-%)=(area of main peak/total area of all peaks)×100.
The purity was then normalized between time points by setting purity at time 0 (T=0) to 100 for each pH value for a given peptide, as follows: Normalized area-% at time t(T=t)=[area-%(T=t)/area-%(T=0)]×100.
The chemical stability assessment results after 14-day incubation (in the form of normalized purity values) are summarized in Table 4.

Data set [2] can be described thus: Solubility assessment (turbidity absorbance at 325 nm). In kind it is physicochemical. The method, then:
A stock solution of the test peptide (2 mg/ml; determined from the weighed amount of peptide) in demineralized water adjusted to pH 2.5 with HCl was prepared, and aliquots were diluted 1:1 in 100 mM acetate buffer (pH 4.0 and pH 5.0), 100 mM histidine buffer (pH 6.0 and pH 7.0) and 100 mM phosphate buffer (pH 6.0, pH 7.0 and pH 7.5), respectively, and loaded in a standard flat-bottom, non-sterile 96-well UV Microplate. The absorbance of samples (single samples, n=1) at 280 and 325 nm was measured in an absorbance-based plate reader, which was preheated to ambient temperature (typically 25° C.).

[3] abbreviates: 100 mM acetate buffer pH 4.0, ambient temperature, read-out: Solubility Acetate buffer pH 4.
[4] abbreviates: 100 mM acetate buffer pH 5.0, ambient temperature, read-out: Solubility Acetate buffer pH 5.
[5] abbreviates: 100 mM histidine buffer pH 6.0, ambient temperature, read-out: Solubility Histidine buffer pH 6.
Setting [6] is: 100 mM histidine buffer pH 7.0, ambient temperature, read-out: Solubility Histidine buffer pH 7.
Where [7] appears, read: 100 mM phosphate buffer pH 6.0, ambient temperature, read-out: Solubility Phosphate buffer pH 6.
Where [8] appears, read: 100 mM phosphate buffer pH 7.0, ambient temperature, read-out: Solubility Phosphate buffer pH 7.
The mark [9] stands for this setting: 100 mM phosphate buffer pH 7.5, ambient temperature, read-out: Solubility Phosphate buffer pH 7.5.

Structures are written as SMILES. Read-outs that look alike come from different tables or passages of the source. Where a SMILES comes first, the peptide text is derived from it. Bounds are passed on as bounds.

As to `CC[C@H](C)[C@H](NC(=O)[C@H](Cc1ccccc1)NC(=O)[C@H](CC(=O)O)NC(=O)[C@H](CCCNC(=N)N)NC(=O)[C@H](C)NC(=O)[C@H](C)NC(=O)[C@H](CCC(N)=O)NC(=O)[C@H](CCCCNC(=O)CC[C@H](NC(=O)CCCCCCCCCCCCCCCCC(=O)O)C(=O)O)NC(=O)[C@H](CC(=O)O)NC(=O)[C@H](CC(C)C)NC(=O)[C@@H](NC(=O)[C@@H](NC(=O)[C@H](C)NC(=O)[C@H](CC(C)C)NC(=O)[C@H](CCC(=O)O)NC(=O)[C@H](CO)NC(=O)[C@H](CO)NC(=O)[C@H](Cc1ccccc1)NC(=O)[C@H](CO)NC(=O)CNC(=O)[C@H](CCC(=O)O)NC(=O)C(C)(C)NC(=O)[C@@H](N)Cc1c[nH]cn1)[C@@H](C)O)[C@@H](C)CC)C(=O)N[C@@H](C)C(=O)N[C@@H](Cc1c[nH]c2ccccc12)C(=O)N[C@@H](CC(C)C)C(=O)N[C@H](C(=O)N[C@@H](CCC(N)=O)C(=O)N[C@@H](Cc1c[nH]cn1)C(=O)N[C@@H](CCCCN)C(=O)N[C@H](C(=O)N[C@H](C(=O)N[C@@H](CC(=O)O)C(=O)O)[C@@H](C)O)[C@@H](C)CC)[C@@H](C)CC` [B, reference compound] (HELM PEPTIDE1{H.[Aib].E.G.S.F.S.S.E.L.A.T.I.L.D.K.Q.A.A.R.D.F.I.A.W.L.I.Q.H.K.I.T.D}|PEPTIDE2{[O=C(O)CCCCCCCCCCCCCCCCC(=O)[*:2]].[gGlu]}$PEPTIDE1,PEPTIDE2,16:R3-2:R2$$$V2.0), the “pH 6 normalized stability” value in data set [1] (pH 6, 40° C.) is listed as “A (>90% normalised stability)”. Besides, the “pH 7 normalized stability” value in data set [1] (pH 7, 40° C.) is recorded as “A (>90% normalised stability)”.
What is called solubility is the dissolved amount per volume that the medium holds. With `CC[C@H](C)[C@H](NC(=O)[C@H](Cc1ccccc1)NC(=O)[C@H](CC(=O)O)NC(=O)[C@H](CCCNC(=N)N)NC(=O)[C@H](C)NC(=O)[C@H](C)NC(=O)[C@H](CCC(N)=O)NC(=O)[C@H](CCCCNC(=O)CC[C@H](NC(=O)CCCCCCCCCCCCCCCCC(=O)O)C(=O)O)NC(=O)[C@H](CC(=O)O)NC(=O)[C@H](CC(C)C)NC(=O)[C@@H](NC(=O)[C@@H](NC(=O)[C@H](C)NC(=O)[C@H](CC(C)C)NC(=O)[C@H](CCC(=O)O)NC(=O)[C@H](CO)NC(=O)[C@H](CO)NC(=O)[C@H](Cc1ccccc1)NC(=O)[C@@H](NC(=O)CNC(=O)[C@H](CCC(=O)O)NC(=O)C(C)(C)NC(=O)[C@@H](N)Cc1c[nH]cn1)[C@@H](C)O)[C@@H](C)O)[C@@H](C)CC)C(=O)N[C@@H](C)C(=O)N[C@@H](Cc1c[nH]c2ccccc12)C(=O)N[C@@H](CC(C)C)C(=O)N[C@H](C(=O)N[C@@H](CCC(=O)O)C(=O)N[C@@H](Cc1c[nH]cn1)C(=O)N[C@@H](CCCCN)C(=O)N[C@H](C(=O)N[C@H](C(=O)N[C@@H](CC(=O)O)C(=O)O)[C@@H](C)O)[C@@H](C)CC)[C@@H](C)CC` [Compound 20] (HELM PEPTIDE1{H.[Aib].E.G.T.F.S.S.E.L.A.T.I.L.D.K.Q.A.A.R.D.F.I.A.W.L.I.E.H.K.I.T.D}|PEPTIDE2{[O=C(O)CCCCCCCCCCCCCCCCC(=O)[*:2]].[gGlu]}$PEPTIDE1,PEPTIDE2,16:R3-2:R2$$$V2.0), the solubility is below 1000 µg/mL in data set [2] (setting [3]); below 1000 µg/mL in data set [2] (setting [4]); at least 1000 µg/mL in data set [2] (setting [5]); at least 1000 µg/mL in data set [2] (setting [6]); at least 1000 µg/mL in data set [2] (setting [7]); at least 1000 µg/mL in data set [2] (setting [8]). Further, in data set [2] (setting [9]), the solubility was at least 1000 µg/mL.
For the molecule `CC[C@H](C)[C@H](NC(=O)[C@H](Cc1ccccc1)NC(=O)[C@H](CC(=O)O)NC(=O)[C@H](CCCNC(=N)N)NC(=O)[C@H](C)NC(=O)[C@H](C)NC(=O)[C@H](CCC(N)=O)NC(=O)[C@H](CCCCNC(=O)CC[C@H](NC(=O)CCCCCCCCCCCCCCCCC(=O)O)C(=O)O)NC(=O)[C@H](CC(=O)O)NC(=O)[C@H](CC(C)C)NC(=O)[C@@H](NC(=O)[C@@H](NC(=O)[C@H](C)NC(=O)[C@H](CC(C)C)NC(=O)[C@H](CCC(=O)O)NC(=O)[C@H](CO)NC(=O)[C@@H](NC(=O)[C@H](Cc1ccccc1)NC(=O)[C@H](CO)NC(=O)CNC(=O)[C@H](CCC(=O)O)NC(=O)C(C)(C)NC(=O)[C@@H](N)Cc1c[nH]cn1)[C@@H](C)O)[C@@H](C)O)[C@@H](C)CC)C(=O)N[C@@H](C)C(=O)N[C@@H](Cc1c[nH]c2ccccc12)C(=O)N[C@@H](CC(C)C)C(=O)N[C@H](C(=O)N[C@@H](Cc1ccc(O)cc1)C(=O)N[C@@H](Cc1c[nH]cn1)C(=O)N[C@@H](CCCCN)C(=O)N[C@H](C(=O)N[C@H](C(=O)N[C@@H](CC(=O)O)C(=O)O)[C@@H](C)O)[C@@H](C)CC)[C@@H](C)CC` [Compound 27] (HELM PEPTIDE1{H.[Aib].E.G.S.F.T.S.E.L.A.T.I.L.D.K.Q.A.A.R.D.F.I.A.W.L.I.Y.H.K.I.T.D}|PEPTIDE2{[O=C(O)CCCCCCCCCCCCCCCCC(=O)[*:2]].[gGlu]}$PEPTIDE1,PEPTIDE2,16:R3-2:R2$$$V2.0), the solubility in data set [2] (setting [3]) was below 1000 µg/mL; in data set [2] (setting [4]), below 1000 µg/mL; in data set [2] (setting [5]), at least 1000 µg/mL; in data set [2] (setting [6]) it was at least 1000 µg/mL; in data set [2] (setting [7]), at least 1000 µg/mL; in data set [2] (setting [8]), at least 1000 µg/mL. Besides, the solubility in data set [2] (setting [9]) was at least 1000 µg/mL.
As to `CC[C@H](C)[C@H](NC(=O)[C@H](Cc1ccccc1)NC(=O)[C@H](CC(=O)O)NC(=O)[C@H](CCCNC(=N)N)NC(=O)[C@H](C)NC(=O)[C@H](C)NC(=O)[C@H](CC(C)C)NC(=O)[C@H](CC(N)=O)NC(=O)[C@H](CC(=O)O)NC(=O)[C@H](CC(C)C)NC(=O)[C@@H](NC(=O)[C@@H](NC(=O)[C@H](CC(N)=O)NC(=O)[C@H](CCSC)NC(=O)[C@H](CCC(=O)O)NC(=O)[C@H](CC(=O)O)NC(=O)[C@H](CO)NC(=O)[C@H](Cc1ccccc1)NC(=O)[C@H](CO)NC(=O)CNC(=O)[C@H](CC(=O)O)NC(=O)CNC(=O)[C@@H](N)Cc1c[nH]cn1)[C@@H](C)O)[C@@H](C)CC)C(=O)N[C@@H](CC(N)=O)C(=O)N[C@@H](Cc1c[nH]c2ccccc12)C(=O)N[C@@H](CC(C)C)C(=O)N[C@H](C(=O)N[C@@H](CCC(N)=O)C(=O)N[C@H](C(=O)N[C@@H](CCCCN)C(=O)N[C@H](C(=O)N[C@H](C(=O)N[C@@H](CC(=O)O)C(=O)O)[C@@H](C)O)[C@@H](C)CC)[C@@H](C)O)[C@@H](C)CC` [Teduglutide, [Gly2]-hGLP-2 (1-33), reference compound], the solubility was below 1000 µg/mL in data set [2] (setting [3]); below 1000 µg/mL in data set [2] (setting [4]); below 1000 µg/mL in data set [2] (setting [5]); at least 1000 µg/mL in data set [2] (setting [6]); below 1000 µg/mL in data set [2] (setting [7]); below 1000 µg/mL in data set [2] (setting [8]). In data set [2] (setting [9]), the solubility is at least 1000 µg/mL.

(Values after patent US11395847B2, “Acylated GLP-1/GLP-2 dual agonists” (Zealand Pharma A/S, priority 2016, dated 2022).)
